For data set [1], the system named is mouse pulmonary adenoma induced by benzo(a)pyrene. To be noted: BP + ginseng of given age, BP line = carcinogen alone, cited from earlier work.
Data set [2] deals with lung adenoma induced by benzo(a)pyrene. As to the kind of experiment: 9-weeks medium-term anticarcinogenicity test of ginsenosides (Experiment 1). Conditions: for incidence of lung adenoma on the average: BP 0.5 mg plus ginsenoside; for incidence of lung adenoma on the average / Incidence (lung adenoma), treatment alone without BP: sacrifice 9th week; for incidence of lung adenoma on the average / Incidence, number of mice with lung adenoma / Incidence, value in parentheses (percent of mice with lung adenoma) / Multiplicity (Mean ± S.D.): BP line = carcinogen alone; for Incidence, number of mice with lung adenoma / Incidence, value in parentheses (percent of mice with lung adenoma) / Multiplicity (Mean ± S.D.): BP 0.5 mg/head + ginsenoside 80 μg/ml; for Incidence (lung adenoma), treatment alone without BP: red ginseng extract 2 mg/ml, ginsenosides 80 μg/ml in drinking water, 6 weeks; for lung adenoma in groups treated singularly, without BP (in words): treatment alone, 9 weeks. The format is in vivo, NIH(GP) mice. An excerpt:
1) Experimental animal: In this experiment newborn non-inbred strain NIH(GP) mice were used. Each experimental animal was in a breeding chamber maintained at constant temperature and humidity and, after weaning, given a solid feed prepared according to the NIH-7 open formula. The experimental animals were allowed to freely take drinking water and diet.
2) Establishment of the test groups: The test groups were a total of 10 groups including the normal control group, the ginsenoside Rg3 treatment group, the ginsenoside Rg5 group, the ginsenoside Rh1 group, the ginsenoside Rh2 group, the BP 0.5 mg group, the BP plus ginsenoside Rg3 group, the BP plus ginsenoside Rg5 group, the BP plus ginsenoside Rh1 group, and the BP plus ginsenoside Rh2 group, wherein 25 to 30 newborn mouse, female and male respectively, were used in each group.
3) Chemical carcinogen: As the chemical carcinogen, benzo(a)pyrene (BP: Sigma Chemical Co.) was used. The given amount of BP was suspended in 1% aqueous gelatin solution and then injected subcutaneously in the subscapular region once in an amount of 0.02 cc (0.5 mg).
4) Administration of respective ginsenosides: Respective ginsenosides, i.e. ginsenoside Rg3, ginsenoside Rg5, ginsenoside Rh1 and ginsenoside Rh2 were suspended in drinking water to 80 μg/ml and daily administered from the 3rd week to 9 th week after birth, i.e. during the period of 6 weeks.
5) Monitoring and sacrifice of experimental animals: The appearance of mice was monitored every time at which the feed and drinking water were changed, beginning from weaning at the 3th week after birth. Mice were weighed at intervals of one week and sacrificed at the 9th week after birth and then subjected to autopsy.
6) Pathological investigation: Immediately after autopsy, lungs were exposed to observe the presence or absence of nodules of lung adenoma, and at the same time, to observe the presence or absence of any lesion in respective main organs by the naked eye. Then lungs were fixed in Tellyesniczky solution and the other main organs were fixed in 10% neutral formalin solution, cut and then examined with a microscope. After fixing of lungs, nodules of long adenoma were counted by the naked eye. Then lungs were cut as in case of other main organs, stained with hematoxylin-eosin and then investigated to find nodules of lung adenoma.
7) Statistical treatment: The comparisons of the calculated lung adenoma incidence in respective test groups were made using the Chi-square test and the comparisons of multiplicity were made using Student's t test to obtain P-value.

Another data set has as its system male ICR mice. The data set is described as follows: acute toxicity test (Experiment 2). Type of data set: in vivo. Conditions: for autopsy examination, macroscopic (in words) / dead animals (in words): 1000 mg/kg oral, once; for autopsy examination, macroscopic (in words): 14th day after administration; for dead animals (in words): observed for 14 days; for acute toxicity / toxicity (in words): mice, oral route, 1000 mg/kg. The method, then:
20 male ICR mice weighing 26-30 grams were used in each test group to conduct the acute toxicity test of ginsenosides Rg3, Rg5 and Rh2. Specifically, each of ginsenosides Rg3, Rg5 and Rh2 was prepared in 0.5% Tween 80 as the solvent to the concentration of 100 mg/ml and then orally administered to mice once in an amount of 0.2 ml per 20 grams of body weight. The control group was given only 0.5% Tween 80 solvent via oral route. […] Further, on 14th day after administration the animals were sacrificed and then autopsied to examine macroscopically the main organs.

Entries after “also recorded” stand apart in the source; their conditions may differ. Read-outs that look alike come from different tables or passages of the source.

In the case of `c1ccc2c(c1)cc1ccc3cccc4ccc2c1c34` [Benzo(a)pyrene (BP), benzo(a)pyrene, reference compound], the “Incidence of lung adenoma” value in data set [1] (Fresh ginseng Extract series) is recorded as 63.9; in data set [1] (Fresh ginseng Powder series), 41.3; in data set [1] (Red ginseng Extract series) it was 47.5; in data set [1] (Red ginseng powder series), 48.6; in data set [1] (White ginseng Powder series) it was 45.0; in data set [1] (White ginseng extract series), 41.3. Moreover, in data set [2], the “incidence of lung adenoma on the average” value turned out to be 60%. The “Incidence, number of mice with lung adenoma” value (from here on “Incidence, number of mice”) is 16 in data set [2] (Sex F), 30 in data set [2] (Sex M + F) and 14 in data set [2] (Sex M). The “Incidence, value in parentheses (percent of mice with lung adenoma)” value is 64.0 in data set [2] (Sex F), 60.0 in data set [2] (Sex M + F) and 56.0 in data set [2] (Sex M). Moreover, the “Multiplicity (Mean ± S.D.)” value in data set [2] (Sex F) was found to be 1.80 ± 2.12; in data set [2] (Sex M + F), 1.50 ± 1.82; in data set [2] (Sex M) it was 1.20 ± 1.44.
For `CC(C)=CCC[C@](C)(O)[C@H]1CC[C@]2(C)[C@@H]1[C@H](O)C[C@@H]1[C@@]3(C)CC[C@H](O[C@@H]4O[C@H](CO)[C@@H](O)[C@H](O)[C@H]4O[C@@H]4O[C@H](CO)[C@@H](O)[C@H](O)[C@H]4O)C(C)(C)[C@@H]3CC[C@]12C` [Ginsenoside Rg3, ginsenoside Rg3], in the data set on male ICR mice, the “autopsy examination, macroscopic (in words)” value (“autopsy examination” below) is “no special pathological finding”; the “dead animals (in words)” value was “no dead animal was observed”; the “acute toxicity / toxicity (in words)” value is on record as “did not exhibit any acute toxicity; also recorded: have no toxicity”. Also, in data set [2], the “incidence of lung adenoma on the average” value is 46.7% and the “lung adenoma in groups treated singularly, without BP (in words)” value (shortened to “lung adenoma … without BP (in words)”) is listed as “did never occur lung adenoma”. Further, in data set [2] (Sex F), the “Incidence, number of mice” value is on record as 15; the “Incidence, value in parentheses (percent of mice with lung adenoma)” value came out at 50.0; the “Multiplicity (Mean ± S.D.)” value is on record as 1.03 ± 1.27; the “Incidence (lung adenoma), treatment alone without BP” value is 0. In data set [2] (Sex M + F), the “Incidence, number of mice” value is reported as 28; the “Incidence, value in parentheses (percent of mice with lung adenoma)” value was determined as 46.7; the “Multiplicity (Mean ± S.D.)” value was 0.85 ± 1.13; the “Incidence (lung adenoma), treatment alone without BP” value turned out to be 0. Also, in data set [2] (Sex M), the “Incidence, number of mice” value is 13; the “Incidence, value in parentheses (percent of mice with lung adenoma)” value turned out to be 43.3; the “Multiplicity (Mean ± S.D.)” value turned out to be 0.67 ± 0.96; the “Incidence (lung adenoma), treatment alone without BP” value amounted to 0.
Consider `CC(C)=CC/C=C(\C)[C@H]1CC[C@]2(C)[C@@H]1[C@H](O)C[C@@H]1[C@@]3(C)CC[C@H](O[C@@H]4O[C@H](CO)[C@@H](O)[C@H](O)[C@H]4O[C@@H]4O[C@H](CO)[C@@H](O)[C@H](O)[C@H]4O)C(C)(C)[C@@H]3CC[C@]12C` [Ginsenoside Rg5, ginsenoside Rg5], for which, in the data set with male ICR mice, the “autopsy examination” value is “no special pathological finding”; the “dead animals (in words)” value is “no dead animal was observed”; the “acute toxicity / toxicity (in words)” value is on record as “did not exhibit any acute toxicity; also recorded: have no toxicity”. In data set [2], the “incidence of lung adenoma on the average” value amounted to 45.0% and the “lung adenoma … without BP (in words)” value is on record as “did never occur lung adenoma”. In data set [2] (Sex F), the “Incidence, number of mice” value is 14; the “Incidence, value in parentheses (percent of mice with lung adenoma)” value is 46.7; the “Multiplicity (Mean ± S.D.)” value turned out to be 1.33 ± 2.89; the “Incidence (lung adenoma), treatment alone without BP” value is listed as 0. Further, in data set [2] (Sex M + F), the “Incidence, number of mice” value is given as 27; the “Incidence, value in parentheses (percent of mice with lung adenoma)” value is 45.0; the “Multiplicity (Mean ± S.D.)” value worked out at 1.08 ± 2.21; the “Incidence (lung adenoma), treatment alone without BP” value came to 0. In data set [2] (Sex M), the “Incidence, number of mice” value is on record as 13; the “Incidence, value in parentheses (percent of mice with lung adenoma)” value stood at 43.3; the “Multiplicity (Mean ± S.D.)” value came to 0.83 ± 1.21; the “Incidence (lung adenoma), treatment alone without BP” value turned out to be 0.
For `CC(C)=CCC[C@](C)(O)[C@H]1CC[C@]2(C)[C@@H]1[C@H](O)C[C@@H]1[C@@]3(C)CC[C@H](O)C(C)(C)[C@@H]3[C@@H](O[C@@H]3O[C@H](CO)[C@@H](O)[C@H](O)[C@H]3O)C[C@]12C` [Ginsenoside Rh1, ginsenoside Rh1, reference compound], in data set [2] (Sex F), the “Incidence, number of mice” value turned out to be 16; the “Incidence, value in parentheses (percent of mice with lung adenoma)” value was determined as 53.3; the “Multiplicity (Mean ± S.D.)” value came to 1.49 ± 1.86. For the same molecule, in data set [2] (Sex M + F), the “Incidence, number of mice” value is given as 31; the “Incidence, value in parentheses (percent of mice with lung adenoma)” value came out at 51.7; the “Multiplicity (Mean ± S.D.)” value is recorded as 1.03 ± 1.27. Further, in data set [2] (Sex M), the “Incidence, number of mice” value is 15; the “Incidence, value in parentheses (percent of mice with lung adenoma)” value is given as 50.0; the “Multiplicity (Mean ± S.D.)” value turned out to be 1.20 ± 1.54. Also, in data set [2], the “lung adenoma … without BP (in words)” value is “did never occur lung adenoma”.
Take `CC(C)=CCC[C@](C)(O)[C@H]1CC[C@]2(C)[C@@H]1[C@H](O)C[C@@H]1[C@@]3(C)CC[C@H](O[C@@H]4O[C@H](CO)[C@@H](O)[C@H](O)[C@H]4O)C(C)(C)[C@@H]3CC[C@]12C` [Ginsenoside Rh2, ginsenoside Rh2]: in the data set with male ICR mice, the “autopsy examination” value was “no special pathological finding”; the “dead animals (in words)” value is on record as “no dead animal was observed”; the “acute toxicity / toxicity (in words)” value was “did not exhibit any acute toxicity; also recorded: have no toxicity”. In data set [2], the “incidence of lung adenoma on the average” value came out at 48.3% and the “lung adenoma … without BP (in words)” value is listed as “did never occur lung adenoma”. In data set [2] (Sex F), the “Incidence, number of mice” value is reported as 16; the “Incidence, value in parentheses (percent of mice with lung adenoma)” value turned out to be 53.3; the “Multiplicity (Mean ± S.D.)” value is 1.53 ± 1.93; the “Incidence (lung adenoma), treatment alone without BP” value is 0. Besides, in data set [2] (Sex M + F), the “Incidence, number of mice” value is 29; the “Incidence, value in parentheses (percent of mice with lung adenoma)” value came out at 48.3; the “Multiplicity (Mean ± S.D.)” value came out at 1.15 ± 1.61; the “Incidence (lung adenoma), treatment alone without BP” value turned out to be 0. Further, in data set [2] (Sex M), the “Incidence, number of mice” value worked out at 13; the “Incidence, value in parentheses (percent of mice with lung adenoma)” value was 43.3; the “Multiplicity (Mean ± S.D.)” value is given as 0.77 ± 1.14; the “Incidence (lung adenoma), treatment alone without BP” value was found to be 0.

The values are drawn from US20040009243A1, “Cancer preventive composition comprising ginsenoside glycosides of red ginseng” (priority 2002, published 2004).
